Converted amounts (≈) assume the structure as drawn. Bridge positions count the residues as written; N and C are the ends. Square brackets hold non-standard residues; d marks the D form. Peptide text beside a SMILES is read from it. * marks the point of attachment. Myristoyl = CCCCCCCCCCCCCC(=O)*; Orn = NCCC[C@H](N)C(=O)O; Dab = NCC[C@H](N)C(=O)O; Dap = NC[C@H](N)C(=O)O
Key:
HeLa cells = experiment: Cytotoxicity assay (CCK-8); type: cell-based, human; settings: 48 h
Method: The cytotoxicity of each synAQU peptide was assessed using a cell counting kit‐8 (CCK‐8) assay. HeLa cells were first seeded in a 96‐well flat‐bottom microtiter plate with a density of ∼5000 cells per well and incubated in the DMEM medium supplemented with 10% FBS at 37 °C with 5% CO2 for 24 h. […] All cytotoxicity experiments were done in triplicate (n = 3) and repeated two independent times (n = 2).

[1] = system: Candida albicans ATCC 10231; experiment: MIC assay (YPD broth); type: cell-based; settings: for MIC (μg/mL) C. albicans ATCC 10231: ATCC 10231, 16 h
Method: (§1) All MIC assays were performed two independent times (n = 2) in 96‐well plates using a broth micro‐dilution method. The lowest concentration of that inhibited visible microbial growth was recorded as the MIC value.
(§2) For fungal strains, overnight cultures were diluted 2000‐fold in YPD broth. 100 µL of diluted cells was mixed with 100 µL of YPD broth containing each peptide ranging from […] 64 to 0.125 µg mL^−1 at 2‐fold serial dilutions.

[2] = system: four Gram-negative bacteria, four Gram-positive bacteria, and one fungal pathogen; experiment: Initial antimicrobial assay of 17 synAQUs; type: cell-based; settings: MIC up to 64 µg mL^−1, Figure 3a
Method: as §1
(§3) For most of bacterial strains, overnight cultures were diluted 5000‐fold in LB broth. For E. faecium and S. aureus, overnight cultures were diluted 1000‐ and 10000‐fold in LB broth, respectively. 100 µL of diluted cells was mixed with 100 µL of LB broth containing each peptide ranging from 64 to 0.125 µg mL^−1 at 2‐fold serial dilutions.
as §2

[3] = system: Acinetobacter baumannii 1104008; experiment: microbe, parasite or virus in culture; type: cell-based; settings: for MIC (μg/mL) A. baumannii 1104008: 1104008, 16 h
Method: as §1, §3

[4] = system: Klebsiella pneumoniae CRKP 5452; experiment: microbe, parasite or virus in culture; type: cell-based; settings: for MIC (μg/mL) K. pneumoniae CRKP 5452: CRKP 5452, 16 h
Method: as §1, §3

[5] = system: Streptococcus pyogenes ATCC 19615; experiment: microbe, parasite or virus in culture; type: cell-based; settings: for MIC (μg/mL) S. pyogenes ATCC 19615: ATCC 19615, 16 h
Method: as §1, §3

[6] = system: Staphylococcus aureus USA300; experiment: microbe, parasite or virus in culture; type: cell-based; settings: for MIC (μg/mL) S. aureus USA300: USA300, 16 h
Method: as §1, §3

[7] = system: Candida albicans ATCC 64550; type: cell-based; settings: ATCC 64550, 16 h
Method: as §1, §2

Enterococcus faecalis 26 = experiment: microbe, parasite or virus in culture; type: cell-based; settings: 26, 16 h
Method: as §1, §3

[8] = system: Acinetobacter baumannii ATCC 19606; experiment: microbe, parasite or virus in culture; type: cell-based; settings: ATCC 19606, 16 h
Method: as §1, §3

[9] = system: Klebsiella pneumoniae NCTC 5056; experiment: microbe, parasite or virus in culture; type: cell-based; settings: NCTC 5056, 16 h
Method: as §1, §3

[10] = system: Streptococcus mutans ATCC 25175; experiment: microbe, parasite or virus in culture; type: cell-based; settings: ATCC 25175, 16 h
Method: as §1, §3

[11] = system: Vibrio alginolyticus XSBZ14; experiment: microbe, parasite or virus in culture; type: cell-based; settings: 16 h
Method: as §1, §3

[12] = system: Acinetobacter baumannii ATCC 17978; experiment: microbe, parasite or virus in culture; type: cell-based; settings: ATCC 17978, 16 h
Method: as §1, §3

[13] = system: Pseudomonas aeruginosa PAO1; experiment: microbe, parasite or virus in culture; type: cell-based; settings: Table S11; LB broth, 37 °C, 16 h, n = 2
Method: as §1, §3

Enterococcus faecalis 28 = experiment: microbe, parasite or virus in culture; type: cell-based; settings: 28, 16 h
Method: as §1, §3

[14] = system: Klebsiella pneumoniae CRKP HS11286; experiment: microbe, parasite or virus in culture; type: cell-based; settings: CRKP HS11286, 16 h
Method: as §1, §3

[15] = system: Enterococcus faecium 35682; experiment: microbe, parasite or virus in culture; type: cell-based; settings: Table S11; LB broth, 37 °C, 16 h, n = 2
Method: as §1, §3

[16] = system: Pseudomonas aeruginosa ATCC 9027; experiment: microbe, parasite or virus in culture; type: cell-based; settings: ATCC 9027, 16 h
Method: as §1, §3

[17] = system: Salmonella typhimurium LXX; experiment: microbe, parasite or virus in culture; type: cell-based; settings: murium LXX, 16 h
Method: as §1, §3

[18] = system: Staphylococcus aureus ATCC 25923; experiment: microbe, parasite or virus in culture; type: cell-based; settings: ATCC 25923, 16 h
Method: as §1, §3

[19] = system: Salmonella enterica ATCC 14028; experiment: microbe, parasite or virus in culture; type: cell-based; settings: ATCC 14028, 16 h
Method: as §1, §3

[20] = system: Enterococcus faecalis ATCC 29212; experiment: microbe, parasite or virus in culture; type: cell-based; settings: ATCC 29212, 16 h
Method: as §1, §3

[21] = system: Klebsiella pneumoniae ATCC 13883; experiment: microbe, parasite or virus in culture; type: cell-based; settings: ATCC 13883, 16 h
Method: as §1, §3

[22] = system: Staphylococcus aureus ATCC 6538; experiment: microbe, parasite or virus in culture; type: cell-based; settings: ATCC 6538, 16 h
Method: as §1, §3

[23] = system: Staphylococcus aureus Newman; experiment: microbe, parasite or virus in culture; type: cell-based; settings: Newman, 16 h
Method: as §1, §3

[24] = system: Acinetobacter baumannii P53; experiment: microbe, parasite or virus in culture; type: cell-based; settings: Table S11; LB broth, 37 °C, 16 h, n = 2
Method: as §1, §3

Shigella Castellani LXX = experiment: MIC assay (broth micro-dilution); type: cell-based; settings: Table S11; LB broth, 37 °C, 16 h, n = 2
Method: as §1, §3

Escherichia coli DH5α = experiment: MIC assay (broth micro-dilution); type: cell-based; settings: Table S11; LB broth, 37 °C, 16 h, n = 2
Method: as §1, §3

[25] = Table S11, LB broth, 37 °C, 16 h, n = 2

CCCCCCCCCCCCCC(=O)N[C@H](C)C(=O)N[C@H](C)C(=O)N[C@H](Cc1ccccc1)C(=O)N[C@H](C(=O)N[C@@H](CCCNC(=N)N)C(=O)O)[C@@H](C)O [synAQU1-L] (Myristoyl-[dA][dA][dF]TR-OH)
MIC (μg/mL) Hela (HeLa cells): > 64 µg/mL
MIC (μg/mL) C. albicans ATCC 10231 [1]: > 64 µg/mL
activity against all nine tested strains [2]: not active
MIC (μg/mL) A. baumannii 1104008 [3]: > 64 µg/mL
MIC (μg/mL) K. pneumoniae CRKP 5452 [4]: > 64 µg/mL
MIC (μg/mL) S. pyogenes ATCC 19615 [5]: > 64 µg/mL
MIC (μg/mL) S. aureus USA300 [6]: > 64 µg/mL

CCCCCCCCCCCCCC(=O)N[C@@H](Cc1ccccc1)C(=O)N[C@@H](CCCN)C(=O)N[C@H]1CCCNC(=O)CNC(=O)[C@H](CCN)NC(=O)[C@@H](Cc2ccc(O)cc2)NC(=O)[C@H](CC(C)C)NC(=O)[C@H]([C@@H](C)CC)NC(=O)[C@@H](C(C)C)NC1=O [synAQU2-C3] (Myristoyl-F[Orn][Orn][dV]IL[dY][Dab]G; lactam 3-C)
MIC Candida albicans ATCC 10231 ([1]; Table S11, YPD broth, 30 °C, 16 h, n = 2): > 64 µg/mL
MIC Candida albicans ATCC 64550 [7]: > 64 µg/mL
MIC Acinetobacter baumannii 1104008 [3, 25]: 8 µg/mL (≈ 6.5 µM)
MIC Enterococcus faecalis 26 (Enterococcus faecalis 26): 8 µg/mL (≈ 6.5 µM)
MIC Klebsiella pneumoniae CRKP 5452 [4, 25]: > 64 µg/mL
MIC Acinetobacter baumannii ATCC 19606 [8]: > 64 µg/mL
MIC Klebsiella pneumoniae NCTC 5056 [9]: 32 µg/mL (≈ 26 µM)
MIC Streptococcus mutans ATCC 25175 [10]: 8 µg/mL (≈ 6.5 µM)
MIC Streptococcus pyogenes ATCC 19615 [5, 25]: 2 µg/mL (≈ 1.62 µM)
MIC Vibrio alginolyticus XSBZ14 [11]: 16 µg/mL (≈ 13 µM)
MIC Acinetobacter baumannii ATCC 17978 [12]: 4 µg/mL (≈ 3.25 µM)
MIC Staphylococcus aureus USA300 [6, 25]: > 64 µg/mL
MIC Pseudomonas aeruginosa PAO1 [13]: 32 µg/mL (≈ 26 µM)
MIC Enterococcus faecalis 28 (Enterococcus faecalis 28): > 64 µg/mL
MIC Klebsiella pneumoniae CRKP HS11286 [14]: > 64 µg/mL
MIC Enterococcus faecium 35682 [15]: 8 µg/mL (≈ 6.5 µM)
MIC Pseudomonas aeruginosa ATCC 9027 [16]: > 64 µg/mL
MIC Salmonella typhimurium LXX [17]: > 64 µg/mL
MIC Staphylococcus aureus ATCC 25923 [18]: 16 µg/mL (≈ 13 µM)
MIC Salmonella enterica ATCC 14028 [19]: > 64 µg/mL
MIC Enterococcus faecalis ATCC 29212 [20]: 32 µg/mL (≈ 26 µM)
MIC Klebsiella pneumoniae ATCC 13883 [21]: > 64 µg/mL
MIC Staphylococcus aureus ATCC 6538 [22]: 16 µg/mL (≈ 13 µM)
MIC Staphylococcus aureus Newman [23]: > 64 µg/mL
MIC Acinetobacter baumannii P53 [24]: 8 µg/mL (≈ 6.5 µM)
MIC Shigella Castellani LXX (Shigella Castellani LXX): > 64 µg/mL
MIC Escherichia coli DH5α (Escherichia coli DH5α): > 64 µg/mL

CCCCCCCCCCCCCC(=O)N[C@@H](CN)C(=O)N[C@@H]1C(=O)N[C@@H](CC(C)C)C(=O)N[C@@H](CO)C(=O)N[C@@H](CCN)C(=O)N[C@@H](CN)C(=O)N[C@@H](Cc2ccccc2)C(=O)N[C@@H]([C@@H](C)CC)C(=O)N[C@@H](CCCN)C(=O)N[C@@H](CC(N)=O)C(=O)N[C@@H](Cc2ccccc2)C(=O)O[C@@H]1C [synAQU5-C2] (Myristoyl-[Dap]TLS[Dab][Dap]FI[Orn]NF; ester 2-C)
MIC (μg/mL) Hela (HeLa cells): > 64 µg/mL
MIC (μg/mL) C. albicans ATCC 10231 [1]: > 64 µg/mL
activity against all nine tested strains [2]: not active
MIC (μg/mL) A. baumannii 1104008 [3]: > 64 µg/mL
MIC (μg/mL) K. pneumoniae CRKP 5452 [4]: > 64 µg/mL
MIC (μg/mL) S. pyogenes ATCC 19615 [5]: > 64 µg/mL
MIC (μg/mL) S. aureus USA300 [6]: > 64 µg/mL

Source: PMC12677607, “Identification of a Pair of Linear or Cyclic Naturally Inspired Bifunctional Lipopeptide Antibiotics That Overcome Antimicrobial Resistance” (Advanced Science, 2025)
